Reference: patent US20080249075A1, “C11 Modified Retrosteroids as Progesterone Receptor Modulator Compounds” (Solvay Pharmaceuticals GmbH, priority 2007, published 2008)

Assays:
[1] = biological target: T1, human progesterone receptor (Homo sapiens, UniProt P06401); test: Progesterone receptor binding assay, human PR (CEREP); conditions: 3H-R5020 as ligand, MCF7 cells as source of PR; for Ki: read-out: Human PR binding (pKi) (converted)
T1 sequence (P06401 679-933 limits assumed): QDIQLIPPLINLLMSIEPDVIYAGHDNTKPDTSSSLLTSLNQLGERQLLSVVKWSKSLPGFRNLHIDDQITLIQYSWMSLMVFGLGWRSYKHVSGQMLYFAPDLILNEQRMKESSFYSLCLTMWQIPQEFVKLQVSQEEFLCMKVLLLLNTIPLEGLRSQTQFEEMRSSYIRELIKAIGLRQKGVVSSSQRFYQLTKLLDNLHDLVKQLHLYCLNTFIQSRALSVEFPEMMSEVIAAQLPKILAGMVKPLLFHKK
Procedure: The progesterone receptor (PR) binding assays were performed at CEREP (Celle I'Evescault, France).
The binding to the human progesterone receptor (Assay Cat No: Progesterone receptor-814h) was be measured using 3H-R5020 as ligand and MCF7 cells as the source of progesterone receptor. The assay is performed as described by Eckert & Katzenellenbogen [1982]. The binding to the bovine progesterone receptor (Assay Cat No: Progesterone receptor-814) was measured using 3H-R5020 as ligand and uterus tissue as the source of progesterone receptor. The assay was performed as described by Hurd & Moudgil [1988].
The results of the receptor binding assay are presented as the individual pKi values, which were determined by measuring the binding activity to the human or bovine PR, as indicated, for a concentration range of each compound.

[2] = test system: T47D human breast carcinoma cells; test: cells; type: cell-based; conditions: for activation at 0.1 µM / inhibition at 0.1 µM / EC50 / IC50: Homo sapiens, T47D; for activation at 0.1 µM: 48 h, read-out: PS [100 nM] (% stimulation); for inhibition at 0.1 µM: read-out: PI [100 nM] (% inhibition); for EC50: read-out: pEC50 (converted); for IC50: read-out: pIC50 (converted); for PS [100 nM] (% stimulation): agonistic mode, alkaline phosphatase induction (100% = 1 nM Dydrogesterone); for PS [100 nM] (% stimulation) / PI [100 nM] (% inhibition): compound 100 nM; for PI [100 nM] (% inhibition): antagonistic mode, inhibition of alkaline phosphatase induction by 1 nM Dydrogesterone
Procedure: The progesterone-dependent modulation of alkaline phosphatase expression was examined using T47D human breast carcinoma cells [Keydar et al., 1979]. The assay was performed as previously described by Di Lorenzo et al. (1991) with the modification of using Dydrogesterone as comparative progestin to determine the antagonistic and agonistic activity.
The cell line was purchased from CLS Cell Lines Service (Hildastrasse 21, D-69214 Eppelheim, Germany). In brief, the cells were plated in 96-well plates at 40,000 cells/well using the following growth medium: RPMI 1640 with: 10% FBS, 1 mM Sodium Pyruvat MEM, 10 mM Hepes, 0.01 mg/ml Bovine insulin, and 25 μg/ml Gentamycin. After 24 h of cultivation, the growth medium was replaced with medium containing 2% fetal bovine serum and the test compounds were added to each well to achieve the appropriate compound concentration: For determination of agonistic activity only the test compounds were added; for measurement of antagonistic activity the test compounds and additionally Dydrogesterone as standard progesterone agonist was added to a final concentration of 1 nM. After 48 h of cultivation, the medium was removed and the cells were washed with 200 μl of Dulbecco's phosphate-buffered saline without calcium and magnesium (PBS(−)). Then the cells were fixed with 3.7% formaldehyde in phosphate-buffered saline for 15 min at 22° C. After washing the cells with PBS, 100 μl of a […] (pNPP) solution (pNPP Liquid Substrate System; Sigma) was added to each well and incubated for 2 h at room temperature protected from light. The reaction was stopped with 100 μl 1N NaOH and the absorbance was measured with a spectrophotometer (Victor, Perkin Elmer) at 405 nm. The results are expressed as alkaline phosphatase induction (as 100% with 1 nM Dydrogesterone) or inhibition (against alkaline phosphatase induction by 1 nM Dydrogesterone) at a certain concentration of test compound.
% stimulation=(effect compound−basal)/(effect dydro 1 nM−basal)*100% inhibition of 1 nM Dydro=100*{1-[(effect compound−basal)/(effect dydro 1 nM−basal)]}
For each compound the % inhibition (PI) and % stimulation (PS), respectively, at a compound concentration of 100 nM was determined. For selected compounds, the corresponding values were measured for several different concentrations, and subsequently were plotted against the concentration of the test compound, and used to calculate the IC50 value (for the antagonistic potency; the IC50 value is the concentration (nM), required to reduce the maximal response by 50%) and EC50 values (for the agonistic potency; the EC50 value is the effective concentration (nM) that produced 50% of the maximum response), respectively.

CC(=O)[C@H]1CC[C@H]2[C@@H]3C=CC4=CC(=O)CC[C@@]4(C)[C@@H]3[C@@H](OC(=O)Nc3ccc4c(c3)OCO4)C[C@]12C [Compound No. 13, Benzo[1,3]dioxol-5-yl-carbamic acid dydrogesterone-11β-yl ester] showed a Ki [1] of at least 631 nM, an activation at 0.1 µM [2] of 5% and an inhibition at 0.1 µM [2] of 73%. The EC50 [2] was 398 nM and the IC50 [2] was 31.6 nM.

COc1cc(NC(=O)O[C@H]2C[C@]3(C)[C@@H](C(C)=O)CC[C@H]3[C@@H]3C=CC4=CC(=O)CC[C@@]4(C)[C@@H]32)cc(OC)c1OC [Compound No. 24, (3,4,5-Trimethoxy-phenyl)-carbamic acid dydrogesterone-11β-yl ester] was tested, and the Ki [1] was 200 nM, the activation at 0.1 µM [2] was 0% and the inhibition at 0.1 µM [2] was 88%. For the same compound, the IC50 [2] was 50.1 nM.

Work on CCO[C@]1(C(C)=O)CC[C@H]2[C@@H]3C=CC4=CC(=O)C5CC5[C@@]4(C)[C@@H]3[C@@H](OC(=O)Nc3cccc(OC)c3)C[C@@]21C (stereo partly shown) [Compound No. 29] yielded a Ki [1] of 398 nM, an activation at 0.1 µM [2] of 0% and an inhibition at 0.1 µM [2] of 87%. For the same compound, the IC50 [2] was 5.01 nM.

CC(=O)[C@H]1CC[C@H]2[C@@H]3C=CC4=CC(=O)CC[C@@]4(C)[C@@H]3[C@@H](OC(=O)Nc3cccc(/C=N/O)c3)C[C@]12C [Compound No. 32, [3-(Hydroxyimino-methyl)-phenyl]-carbamic acid dydrogesterone-11-yl ester] gave a Ki [1] of 316 nM.

Compound CCO[C@]1(C(C)=O)CC[C@H]2[C@@H]3C=CC4=CC(=O)CC[C@@]4(C)[C@@H]3[C@@H](OC(=O)Nc3ccc4c(c3)OCO4)C[C@@]21C [Compound No. 34, Benzo[1,3]-dioxol-5-yl-carbamic acid 17-ethoxy-dydrogesterone-11β-yl este] has a Ki [1] of 126 nM, an activation at 0.1 µM [2] of 95% and an inhibition at 0.1 µM [2] of 5%.

For CC(=O)[C@H]1CC[C@H]2[C@@H]3C=CC4=CC(=O)CC[C@@]4(C)[C@@H]3[C@@H](OC(=O)Nc3ccc4cn[nH]c4c3)C[C@]12C [compound 41, (1H-Indazol-6-yl)-carbamic aciddydrogesterone-11-yl ester], the Ki [1] was 316 nM, the activation at 0.1 µM [2] was 1% and the inhibition at 0.1 µM [2] was 96%. For the same compound, the IC50 [2] was 6.31 nM.

In the case of CC(=O)[C@H]1CC[C@H]2[C@@H]3C=CC4=CC(=O)CC[C@@]4(C)[C@@H]3C(OC(=O)NCc3ccc4c(c3)OCO4)C[C@]12C (stereo partly shown) [compound 42, Benzo[1,3]dioxol-5-ylmethyl-carbamic acid dydrogesterone-11-yl ester], the “Human PR binding (pKi)” value [1] is reported as 6.8, the “PS [100 nM] (% stimulation)” value ([2]; T47D cells) is reported as 76.0% and the pEC50 ([2]; agonistic potency, T47D cells) is reported as 7.0. The “PI [100 nM] (% inhibition)” value ([2]; T47D cells) was 6.0%.

In the case of COc1ccccc1N1CCN(C(=O)O[C@H]2C[C@]3(C)[C@@H](C(C)=O)CC[C@H]3[C@@H]3C=CC4=CC(=O)CC[C@@]4(C)[C@@H]32)CC1 [compound 43, 4-(2-Methoxy-phenyl)-piperazine-1-carboxylic aciddydrogesterone-11-yl ester], the Ki [1] is reported as at least 631 nM.

Compound CC(=O)[C@H]1CC[C@H]2[C@@H]3C=CC4=CC(=O)CC[C@@]4(C)[C@@H]3[C@@H](OC(=O)Nc3cnc4ccccc4c3)C[C@]12C [compound 51, Quinolin-3-yl-carbamic aciddydrogesterone-11-yl ester] has a Ki [1] of 398 nM, an activation at 0.1 µM [2] of 5% and an inhibition at 0.1 µM [2] of 59%. It also gave an IC50 [2] of 100 nM.

With COc1ccc(CNC(=O)O[C@H]2C[C@]3(C)[C@@H](C(C)=O)CC[C@H]3[C@@H]3C=CC4=CC(=O)CC[C@@]4(C)[C@@H]32)cc1 [compound 55, (4-Methoxy-benzyl)-carbamicacid dydrogesterone-11-yl ester] the Ki [1] was 100 nM, the activation at 0.1 µM [2] was 143% and the inhibition at 0.1 µM [2] was -79%. The EC50 [2] was 50.1 nM.

CC(=O)[C@H]1CC[C@H]2[C@@H]3C=CC4=CC(=O)CC[C@@]4(C)[C@@H]3[C@@H](OC(=O)Nc3cccc(OC(F)(F)F)c3)C[C@]12C [compound 63, (3-Trifluoromethoxy-phenyl)-carbamic acid dydrogesterone-11-yl ester] gave a Ki [1] of at least 631 nM.

Compound CC(=O)[C@H]1CC[C@H]2[C@@H]3C=CC4=CC(=O)CC[C@@]4(C)[C@@H]3[C@@H](OC(=O)NCc3ccc(S(C)(=O)=O)cc3)C[C@]12C [compound 67, (4-Methanesulfonyl-benzyl)-carbamic acid dydrogesterone-11-yl ester] has a Ki [1] of at least 631 nM.

CC(=O)[C@H]1CC[C@H]2[C@@H]3C=CC4=CC(=O)CC[C@@]4(C)[C@@H]3[C@@H](OC(=O)Nc3cccc(C#N)c3)C[C@]12C [compound 71, (3-Cyano-phenyl)-carbamic aciddydrogesterone-11-yl ester] was tested, and the Ki [1] was at least 631 nM.

Work on CC(=O)[C@H]1CC[C@H]2[C@@H]3C=CC4=CC(=O)CC[C@@]4(C)[C@@H]3[C@@H](OC(=O)Nc3ccc4c(=O)cc(C)oc4c3)C[C@]12C [compound 77, (2-Methyl-4-oxo-4H-chromen-7-yl)-carbamic aciddydrogesterone-11-yl ester] yielded a Ki [1] of at least 631 nM.

CC(=O)[C@H]1CC[C@H]2[C@@H]3C=CC4=CC(=O)CC[C@@]4(C)[C@@H]3[C@@H](OC(=O)NCc3cccc(F)c3)C[C@]12C [compound 78, (3-Fluoro-benzyl)-carbamic aciddydrogesterone-11-yl ester] gave a Ki [1] of 398 nM.

With CC(=O)c1cccc(NC(=O)OC2C[C@]3(C)[C@@H](C(C)=O)CC[C@H]3[C@@H]3C=CC4=CC(=O)CC[C@]4(C)[C@@H]23)c1 (stereo partly shown) [compound 81, (3-Acetyl-phenyl)-carbamic aciddydrogesterone-11-yl ester] the “Human PR binding (pKi)” value [1] was 6.6, the “PS [100 nM] (% stimulation)” value ([2]; T47D cells) was 1.0% and the “PI [100 nM] (% inhibition)” value ([2]; T47D cells) was 72.0%. It also gave a pIC50 ([2]; antagonistic potency against 1 nM Dydrogesterone, T47D cells) of 7.3.

CC(=O)Nc1ccc(NC(=O)OC2C[C@]3(C)[C@@H](C(C)=O)CC[C@H]3[C@@H]3C=CC4=CC(=O)CC[C@@]4(C)[C@H]23)cc1 (stereo partly shown) [compound 82, (4-Acetylamino-phenyl)-carbamicacid dydrogesterone-11-yl ester] was tested, and the “Human PR binding (pKi)” value [1] was 6.6, the “PS [100 nM] (% stimulation)” value ([2]; T47D cells) was 0.0% and the “PI [100 nM] (% inhibition)” value ([2]; T47D cells) was 40.0%.

CC(=O)[C@H]1CC[C@H]2[C@@H]3C=CC4=CC(=O)CC[C@@]4(C)[C@@H]3[C@@H](OC(=O)Nc3ccc(F)c(C#N)c3)C[C@]12C [compound 85, (3-Cyano-4-fluoro-phenyl)-carbamic acid dydrogesterone-11-yl ester] gave a Ki [1] of 501 nM.

CC(=O)[C@H]1CC[C@H]2[C@@H]3C=CC4=CC(=O)CC[C@@]4(C)[C@@H]3[C@@H](OC(=O)Nc3ccc4[nH]ccc4c3)C[C@]12C [compound 91, (1H-Indol-5-yl)-carbamic aciddydrogesterone-11-yl ester] was tested, and the Ki [1] was at least 631 nM, the activation at 0.1 µM [2] was 1% and the inhibition at 0.1 µM [2] was 58%. The IC50 [2] was 100 nM.

CSc1cccc(NC(=O)O[C@H]2C[C@]3(C)[C@@H](C(C)=O)CC[C@H]3[C@@H]3C=CC4=CC(=O)CC[C@@]4(C)[C@@H]32)c1 [compound 92, (3-Methylsulfanyl-phenyl)-carbamic acid dydrogesterone-11-yl ester] was tested, and the Ki [1] was at least 631 nM, the activation at 0.1 µM [2] was 1% and the inhibition at 0.1 µM [2] was 55%. For the same compound, the IC50 [2] was 100 nM.
